Residues, ends and D or L forms follow the SMILES beside them. *: point of attachment. X1 = Cn1ncnc1[C@H]1c2n[nH]c(=O)c3cc(F)cc(c23)N(CNC(=O)OCCS*)[C@@H]1c1ccc(F)cc1; X13 = Cc1cc(COC(=O)N(C)Cc2ccc(-c3[nH]c4cc(F)cc5c4c3CCNC5=O)cc2)cc(C)c1S*; X10 = Cc1cc(COC(=O)N(C)Cc2ccc(-c3[nH]c4cc(F)cc5c4c3CCNC5=O)cc2)ccc1S*; X25 = COC[C@@H](CS*)OC(=O)N(C)Cc1ccc(-c2[nH]c3cc(F)cc4c3c2CCNC4=O)cc1

PARP, sequence (P09874 whole entry): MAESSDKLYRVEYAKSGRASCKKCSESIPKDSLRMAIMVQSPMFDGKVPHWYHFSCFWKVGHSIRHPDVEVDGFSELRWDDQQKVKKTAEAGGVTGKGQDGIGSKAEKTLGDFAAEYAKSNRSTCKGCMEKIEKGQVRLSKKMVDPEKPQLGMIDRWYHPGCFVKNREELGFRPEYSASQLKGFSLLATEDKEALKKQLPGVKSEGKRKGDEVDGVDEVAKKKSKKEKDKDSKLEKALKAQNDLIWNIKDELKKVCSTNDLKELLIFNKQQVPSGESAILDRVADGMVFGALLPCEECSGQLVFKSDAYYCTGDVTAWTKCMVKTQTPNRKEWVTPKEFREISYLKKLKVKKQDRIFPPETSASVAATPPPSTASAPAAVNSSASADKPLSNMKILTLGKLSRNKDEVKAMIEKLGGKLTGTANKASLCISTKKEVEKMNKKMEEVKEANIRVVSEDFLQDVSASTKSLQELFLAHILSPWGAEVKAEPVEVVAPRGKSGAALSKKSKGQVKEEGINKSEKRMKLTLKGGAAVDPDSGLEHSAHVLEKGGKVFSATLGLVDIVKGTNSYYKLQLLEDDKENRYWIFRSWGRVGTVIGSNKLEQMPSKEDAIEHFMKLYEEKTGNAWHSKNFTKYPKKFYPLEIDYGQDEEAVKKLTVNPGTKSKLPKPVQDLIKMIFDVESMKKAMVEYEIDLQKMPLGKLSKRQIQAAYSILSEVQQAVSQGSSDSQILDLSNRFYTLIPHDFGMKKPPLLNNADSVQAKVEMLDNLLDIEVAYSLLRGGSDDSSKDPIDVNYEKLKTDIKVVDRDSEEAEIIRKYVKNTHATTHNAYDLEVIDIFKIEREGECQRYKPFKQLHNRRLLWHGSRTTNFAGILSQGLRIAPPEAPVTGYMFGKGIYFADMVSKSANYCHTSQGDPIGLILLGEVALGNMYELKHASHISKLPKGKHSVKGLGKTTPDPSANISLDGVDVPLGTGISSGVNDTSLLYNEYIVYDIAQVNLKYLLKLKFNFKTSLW

For the first experiment, the system named is DLD-1 BRCA2−/− cells. The experiment in a line: Growth delay assay. The class given is cell-based, Human. To be noted: pH 7.4, BRCA (−/−) DLD-1, 96 h. The method, then: Cells were plated in 96 well black walled-clear bottom plates (Griener), DLD-1 WT cells at 2500 cells per well, DLD-1 BRCA2−/− at 5000 cells per well, in growth media containing 10% FBS. Cells were allowed to adhere at room temperature for 60 minutes before returning to a 37 C, 5% CO2 incubator. After 24 hours, media was removed and replaced with fresh growth media containing various drug concentrations. Each drug concentration was added in triplicate. Non-drug treated controls contained growth media only. Cells were returned to the incubator. Ninety-six hours after addition of drug, cells were fixed with 4% paraformaldehyde for 20 minutes and stained with Hoechst at 1 ug/mL. The plates were imaged on a Cytation 5 auto imager (BioTek) and cells were counted using CellProfiler (http://cellprofiler.org). The percent cell growth delay was calculated and data plotted using GraphPad Prism.
In general, IC50 refers to the concentration that inhibits the measured activity by half. With `CC[C@H](C)[C@H](NC(=O)[C@@H]1CCCN1C(=O)[C@H](CC(N)=O)NC(=O)[C@H](CCC(N)=O)NC(=O)[C@H](CCC(=O)O)NC(=O)[C@H](C)N)C(=O)N[C@@H](Cc1ccc(O)cc1)C(=O)N[C@@H](Cc1c[nH]c2ccccc12)C(=O)N[C@@H](C)C(=O)N[C@@H](CCCNC(=N)N)C(=O)N[C@@H](Cc1ccc(O)cc1)C(=O)N[C@@H](C)C(=O)N[C@@H](CC(=O)O)C(=O)N[C@@H](Cc1c[nH]c2ccccc12)C(=O)N[C@@H](CC(C)C)C(=O)N[C@@H](Cc1ccccc1)C(=O)N[C@H](C(=O)N[C@H](C(=O)N1CCC[C@H]1C(=O)N[C@@H](CC(C)C)C(=O)N[C@@H](CC(C)C)C(=O)N[C@@H](CC(C)C)C(=O)N[C@@H](CC(C)C)C(=O)N[C@@H](CC(=O)O)C(=O)N[C@@H](CC(C)C)C(=O)N[C@@H](C)C(=O)N[C@@H](CC(C)C)C(=O)N[C@@H](CC(C)C)C(=O)N[C@H](C(=O)N[C@@H](CC(=O)O)C(=O)N[C@@H](C)C(=O)N[C@@H](CC(=O)O)C(=O)N[C@@H](CCC(=O)O)C(=O)N[C@@H](CSSCCOC(=O)NCN1c2cc(F)cc3c(=O)[nH]nc(c23)[C@H](c2ncnn2C)[C@H]1c1ccc(F)cc1)C(=O)NCC(=O)O)C(C)C)[C@@H](C)O)[C@@H](C)O` [Example 12] (H-AEQNPIYWARYADWLFTTPLLLLDLALLVDADEC(X1)G-OH; N-terminus and C-terminus assumed), the IC50 amounted to 162 nM.

The next experiment concerns the target PARP (Homo sapiens, UniProt P09874). The experiment in a line: Enzymatic Assay 2: HT Universal Chemiluminescent PARP Assay of cleaved compounds.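 Also: PARP reaction with activated DNA run 1 h at room temperature, product detected via streptavidin-HRP and luminescence endpoint reading on a plate reader.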 The following applies: read-out: IC50 Enzymatic Assay 2; Examples cleaved per Example A (crude cleavage solution); R^8H starting materials as such.
Consider `CC[C@H](C)[C@H](NC(=O)[C@@H]1CCCN1C(=O)[C@H](CC(N)=O)NC(=O)[C@H](CCC(N)=O)NC(=O)[C@H](CCC(=O)O)NC(=O)[C@H](C)N)C(=O)N[C@@H](Cc1ccc(O)cc1)C(=O)N[C@@H](Cc1c[nH]c2ccccc12)C(=O)N[C@@H](C)C(=O)N[C@@H](CCCNC(=N)N)C(=O)N[C@@H](Cc1ccc(O)cc1)C(=O)N[C@@H](C)C(=O)N[C@@H](CC(=O)O)C(=O)N[C@@H](Cc1c[nH]c2ccccc12)C(=O)N[C@@H](CC(C)C)C(=O)N[C@@H](Cc1ccccc1)C(=O)N[C@H](C(=O)N[C@H](C(=O)N1CCC[C@H]1C(=O)N[C@@H](CC(C)C)C(=O)N[C@@H](CC(C)C)C(=O)N[C@@H](CC(C)C)C(=O)N[C@@H](CC(C)C)C(=O)N[C@@H](CC(=O)O)C(=O)N[C@@H](CC(C)C)C(=O)N[C@@H](C)C(=O)N[C@@H](CC(C)C)C(=O)N[C@@H](CC(C)C)C(=O)N[C@H](C(=O)N[C@@H](CC(=O)O)C(=O)N[C@@H](C)C(=O)N[C@@H](CC(=O)O)C(=O)N[C@@H](CCC(=O)O)C(=O)N[C@@H](CSSCCOC(=O)NCN1c2cc(F)cc3c(=O)[nH]nc(c23)[C@H](c2ncnn2C)[C@H]1c1ccc(F)cc1)C(=O)NCC(=O)O)C(C)C)[C@@H](C)O)[C@@H](C)O` [Example 12] (H-AEQNPIYWARYADWLFTTPLLLLDLALLVDADEC(X1)G-OH; N-terminus and C-terminus assumed), for which the IC50 came out at 0.47 nM.

`CC(C)C[C@H](NC(=O)[C@H](Cc1ccc(O)cc1)NC(=O)[C@H](C)NC(=O)[C@H](CCCNC(=N)N)NC(=O)[C@H](Cc1c[nH]c2ccccc12)NC(=O)[C@@H]1CCCN1C(=O)[C@H](CC(N)=O)NC(=O)[C@H](CCC(N)=O)NC(=O)[C@H](CC(=O)O)NC(=O)[C@H](CC(=O)O)NC(=O)[C@H](C)N)C(=O)N[C@@H](CC(=O)O)C(=O)N[C@@H](CC(C)C)C(=O)N[C@@H](CC(C)C)C(=O)N[C@@H](Cc1ccccc1)C(=O)N1CCC[C@H]1C(=O)N[C@H](C(=O)N[C@@H](CC(=O)O)C(=O)N[C@H](C(=O)N[C@@H](CC(C)C)C(=O)N[C@@H](CC(C)C)C(=O)N[C@@H](CC(C)C)C(=O)N[C@@H](CC(=O)O)C(=O)N[C@@H](CC(C)C)C(=O)N[C@@H](CC(C)C)C(=O)N[C@@H](Cc1c[nH]c2ccccc12)C(=O)N[C@@H](CC(=O)O)C(=O)N[C@@H](C)C(=O)N[C@@H](CC(=O)O)C(=O)N[C@@H](CCC(=O)O)C(=O)N[C@@H](CSS[C@H](C)COC(=O)N1CCC[C@@H](c2ccc(-n3cc4cccc(C(N)=O)c4n3)cc2)C1)C(=O)NCC(=O)O)[C@@H](C)O)[C@@H](C)O` [Example 45]: the IC50 worked out at 3.2 nM.

Regarding `CC[C@H](C)[C@H](NC(=O)[C@@H]1CCCN1C(=O)[C@H](CC(N)=O)NC(=O)[C@H](CCC(N)=O)NC(=O)[C@H](CCC(=O)O)NC(=O)[C@H](C)N)C(=O)N[C@@H](Cc1ccc(O)cc1)C(=O)N[C@@H](Cc1c[nH]c2ccccc12)C(=O)N[C@@H](C)C(=O)N[C@@H](CCCNC(=N)N)C(=O)N[C@@H](Cc1ccc(O)cc1)C(=O)N[C@@H](C)C(=O)N[C@@H](CC(=O)O)C(=O)N[C@@H](Cc1c[nH]c2ccccc12)C(=O)N[C@@H](CC(C)C)C(=O)N[C@@H](Cc1ccccc1)C(=O)N[C@H](C(=O)N[C@H](C(=O)N1CCC[C@H]1C(=O)N[C@@H](CC(C)C)C(=O)N[C@@H](CC(C)C)C(=O)N[C@@H](CC(C)C)C(=O)N[C@@H](CC(C)C)C(=O)N[C@@H](CC(=O)O)C(=O)N[C@@H](CC(C)C)C(=O)N[C@@H](C)C(=O)N[C@@H](CC(C)C)C(=O)N[C@@H](CC(C)C)C(=O)N[C@H](C(=O)N[C@@H](CC(=O)O)C(=O)N[C@@H](C)C(=O)N[C@@H](CC(=O)O)C(=O)N[C@@H](CCC(=O)O)C(=O)N[C@@H](CSSC[C@H](COC)OC(=O)N(C)Cc1ccc(-c2[nH]c3cc(F)cc4c3c2CCNC4=O)cc1)C(=O)NCC(=O)O)C(C)C)[C@@H](C)O)[C@@H](C)O` [Example 27] (H-AEQNPIYWARYADWLFTTPLLLLDLALLVDADEC(X25)G-OH; N-terminus and C-terminus assumed), the IC50 is 3.9 nM. Still for that read-out and setting: as for `CC[C@H](C)[C@H](NC(=O)[C@@H]1CCCN1C(=O)[C@H](CC(N)=O)NC(=O)[C@H](CCC(N)=O)NC(=O)[C@H](CCC(=O)O)NC(=O)[C@H](C)N)C(=O)N[C@@H](Cc1ccc(O)cc1)C(=O)N[C@@H](Cc1c[nH]c2ccccc12)C(=O)N[C@@H](C)C(=O)N[C@@H](CCCNC(=N)N)C(=O)N[C@@H](Cc1ccc(O)cc1)C(=O)N[C@@H](C)C(=O)N[C@@H](CC(=O)O)C(=O)N[C@@H](Cc1c[nH]c2ccccc12)C(=O)N[C@@H](CC(C)C)C(=O)N[C@@H](Cc1ccccc1)C(=O)N[C@H](C(=O)N[C@H](C(=O)N1CCC[C@H]1C(=O)N[C@@H](CC(C)C)C(=O)N[C@@H](CC(C)C)C(=O)N[C@@H](CC(C)C)C(=O)N[C@@H](CC(C)C)C(=O)N[C@@H](CC(=O)O)C(=O)N[C@@H](CC(C)C)C(=O)N[C@@H](C)C(=O)N[C@@H](CC(C)C)C(=O)N[C@@H](CC(C)C)C(=O)N[C@H](C(=O)N[C@@H](CC(=O)O)C(=O)N[C@@H](C)C(=O)N[C@@H](CC(=O)O)C(=O)N[C@@H](CCC(=O)O)C(=O)N[C@@H](CSSc1ccc(COC(=O)N(C)Cc2ccc(-c3[nH]c4cc(F)cc5c4c3CCNC5=O)cc2)cc1C)C(=O)NCC(=O)O)C(C)C)[C@@H](C)O)[C@@H](C)O` [Example 29] (H-AEQNPIYWARYADWLFTTPLLLLDLALLVDADEC(X10)G-OH; N-terminus and C-terminus assumed), the figure is 6.4 nM. As for `CC(C)C[C@H](NC(=O)[C@H](Cc1ccc(O)cc1)NC(=O)[C@H](C)NC(=O)[C@H](CCCNC(=N)N)NC(=O)[C@H](Cc1c[nH]c2ccccc12)NC(=O)[C@@H]1CCCN1C(=O)[C@H](CC(N)=O)NC(=O)[C@H](CCC(N)=O)NC(=O)[C@H](CC(=O)O)NC(=O)[C@H](CC(=O)O)NC(=O)[C@H](C)N)C(=O)N[C@@H](CC(=O)O)C(=O)N[C@@H](CC(C)C)C(=O)N[C@@H](CC(C)C)C(=O)N[C@@H](Cc1ccccc1)C(=O)N1CCC[C@H]1C(=O)N[C@H](C(=O)N[C@@H](CC(=O)O)C(=O)N[C@H](C(=O)N[C@@H](CC(C)C)C(=O)N[C@@H](CC(C)C)C(=O)N[C@@H](CC(C)C)C(=O)N[C@@H](CC(=O)O)C(=O)N[C@@H](CC(C)C)C(=O)N[C@@H](CC(C)C)C(=O)N[C@@H](Cc1c[nH]c2ccccc12)C(=O)N[C@@H](CC(=O)O)C(=O)N[C@@H](C)C(=O)N[C@@H](CC(=O)O)C(=O)N[C@@H](CCC(=O)O)C(=O)N[C@@H](CSSc1ccc(COC(=O)N2CCC[C@]2(C)c2nc3c(C(N)=O)cccc3[nH]2)cc1)C(=O)NCC(=O)O)[C@@H](C)O)[C@@H](C)O` [Example 56], the IC50 was found to be 0.8 nM. Same read-out and setting: as for `CC[C@H](C)[C@H](NC(=O)[C@@H]1CCCN1C(=O)[C@H](CC(N)=O)NC(=O)[C@H](CCC(N)=O)NC(=O)[C@H](CCC(=O)O)NC(=O)[C@H](C)N)C(=O)N[C@@H](Cc1ccc(O)cc1)C(=O)N[C@@H](Cc1c[nH]c2ccccc12)C(=O)N[C@@H](C)C(=O)N[C@@H](CCCNC(=N)N)C(=O)N[C@@H](Cc1ccc(O)cc1)C(=O)N[C@@H](C)C(=O)N[C@@H](CC(=O)O)C(=O)N[C@@H](Cc1c[nH]c2ccccc12)C(=O)N[C@@H](CC(C)C)C(=O)N[C@@H](Cc1ccccc1)C(=O)N[C@H](C(=O)N[C@H](C(=O)N1CCC[C@H]1C(=O)N[C@@H](CC(C)C)C(=O)N[C@@H](CC(C)C)C(=O)N[C@@H](CC(C)C)C(=O)N[C@@H](CC(C)C)C(=O)N[C@@H](CC(=O)O)C(=O)N[C@@H](CC(C)C)C(=O)N[C@@H](C)C(=O)N[C@@H](CC(C)C)C(=O)N[C@@H](CC(C)C)C(=O)N[C@H](C(=O)N[C@@H](CC(=O)O)C(=O)N[C@@H](C)C(=O)N[C@@H](CC(=O)O)C(=O)N[C@@H](CCC(=O)O)C(=O)N[C@@H](CSSc1c(C)cc(COC(=O)N(C)Cc2ccc(-c3[nH]c4cc(F)cc5c4c3CCNC5=O)cc2)cc1C)C(=O)NCC(=O)O)C(C)C)[C@@H](C)O)[C@@H](C)O` [Example 31] (H-AEQNPIYWARYADWLFTTPLLLLDLALLVDADEC(X13)G-OH; N-terminus and C-terminus assumed), the figure is 3.3 nM.

Consider `CC(C)C[C@H](NC(=O)[C@H](Cc1ccc(O)cc1)NC(=O)[C@H](C)NC(=O)[C@H](CCCNC(=N)N)NC(=O)[C@H](Cc1c[nH]c2ccccc12)NC(=O)[C@@H]1CCCN1C(=O)[C@H](CC(N)=O)NC(=O)[C@H](CCC(N)=O)NC(=O)[C@H](CC(=O)O)NC(=O)[C@H](CC(=O)O)NC(=O)[C@H](C)N)C(=O)N[C@@H](CC(=O)O)C(=O)N[C@@H](CC(C)C)C(=O)N[C@@H](CC(C)C)C(=O)N[C@@H](Cc1ccccc1)C(=O)N1CCC[C@H]1C(=O)N[C@H](C(=O)N[C@@H](CC(=O)O)C(=O)N[C@H](C(=O)N[C@@H](CC(C)C)C(=O)N[C@@H](CC(C)C)C(=O)N[C@@H](CC(C)C)C(=O)N[C@@H](CC(=O)O)C(=O)N[C@@H](CC(C)C)C(=O)N[C@@H](CC(C)C)C(=O)N[C@@H](Cc1c[nH]c2ccccc12)C(=O)N[C@@H](CSSCCOC(=O)OCc1ccc(-c2nc3c(C(N)=O)cccc3[nH]2)cc1)C(=O)NCC(=O)O)[C@@H](C)O)[C@@H](C)O` [Example 1], for which the 50% inhibitory concentration (IC50) came out at 12.1 nM.

Values taken from US12427157B2, “Methods for treatment of diseases involving acidic or hypoxic diseased tissues” (Cybrexa 1, Inc., priority 2018, dated 2025).
